Counter-ions that a name gives are not always drawn.

In the case of `COc1ccc(S(=O)(=O)N(Cc2cccnc2)c2c(C(=O)NO)cnc3onc(C)c23)cc1` (as salt: salt) [Example 87, 4-[(4-Methoxybenzenesulfonyl)pyridin-3-ylmethylamino]-3-methylisoxazolo[5,4-b]pyridine-5-carboxylic Acid, Hydroxyamide], the melting point (as a rule, the temperature of the solid-liquid transition) fell in the range of 212 to 215 °C.

With `CN(c1c(C(=O)NO)cnc2c1c(-c1ccccc1)nn2C)S(=O)(=O)c1ccc(Oc2ccncc2)cc1` (as salt: hydrochloride) [Example 93, 4-{Methyl-[4-(4-pyridinyloxy)benzenesulfonyl]amino}-1-methyl-3-phenyl-1H-pyrazolo[3,4-b]pyridine-5-carboxylic acid, Hydroxyamide], the melting point is 195 °C (dec.).

As for `Cc1noc2ncc(C(=O)NO)c(N(C)S(=O)(=O)c3ccc(Oc4ccncc4)cc3)c12` (as salt: hydrochloride) [Example 94, 4-{Methyl-[4-(4-pyridinyloxy)benzenesulfonyl]amino}-3-methylisoxazolo[5,4-b]pyridine-5-carboxylic acid, Hydroxyamide,], the melting point was 170 °C (dec.).

On to `COc1ccc(S(=O)(=O)N(Cc2cccnc2)c2c(C(=O)NO)cnc3snc(C)c23)cc1` (as salt: salt) [Example 86, 4-[(4-Methoxybenzenesulfonyl)pyridin-3-ylmethylamino]-3-methylisothiazolo[5,4-b]pyridine-5-carboxylic Acid, Hydroxyamide], for which the melting point is 224 °C (dec.).

Turning to `Cc1nn(C)c2ncc(C(=O)NO)c(N(C)S(=O)(=O)c3ccc(Oc4ccncc4)cc3)c12` (as salt: hydrochloride) [91(HC1), 4-{Methyl-[4-(4-pyridinyloxy)benzenesulfonyl]amino}-1,3-dimethyl-1H-pyrazolo[3,4-b]pyridine-5-carboxylic Acid, Hydroxyamide], the melting point is 147 °C (dec.).

Compound `COc1ccc(S(=O)(=O)N(Cc2cccnc2)c2c(C(=O)NO)cnc3c2c(C)nn3C)cc1` [Example 60, 4-[(4-Methoxybenzenesulfonyl)pyridin-3-ylmethylamino]-1,3-dimethyl-1H-pyrazolo[3,4-b]pyridine-5-carboxylic acid, hydroxyamide] returned a melting point of 196 to 198 °C.

Consider `COc1ccc(S(=O)(=O)N(Cc2cccnc2)c2c(C(=O)NO)cnc3cc(C)nn23)cc1` (as salt: salt) [Example 88, 7-[(4-Methoxybenzenesulfonyl)pyridin-3-ylmethylamino]-2-methylpyrazolo[1,5-a]pyrimidine-6-carboxylic Acid, Hydroxyamide], for which the melting point was 170 °C (dec.).

Source of the values: patent US6534491B2, “Preparation and use of ortho-sulfonamido bicyclic heteroaryl hydroxamic acids as matrix metalloproteinase and tace inhibitors” (priority 1996, dated 2003).
